Literature values as cited in patent publication US20090004306A1, “Composition for treatment of diabetes and maintaining healthy blood glucose levels” (priority 2007, published 2009).

Columns and labels:
[1] = Kim study

## chromium picolinate
Ample intakes, individuals and diabetics
  insulin sensitivity and glycemic control: promote insulin sensitivity in many individuals and improve glycemic control in some diabetics

## O=C/C=C/c1ccccc1 [cinnamaledhyde]
[1]
  hypoglycemic properties / blood glucose level: exhibit hypoglycemic properties

## [Cr] [chromium]
People with glucose intolerance and type 1, type 2, gestational, and steroid-induced diabetes
  glucose levels and related variables: improve glucose levels and related variables
